Results published in ChEMBL document CHEMBL5390252, “Imidazo[2,1-b]thiazole based indoleamine-2,3-dioxygenase 1 (IDO1) inhibitor: Structure based design, synthesis, bio-evaluation and docking studies” (Bioorg Med Chem Lett, 2023).

Target: T1, Indoleamine 2,3-dioxygenase 1 (Homo sapiens, UniProt P14902)
Assay: Inhibition of human IDO1 using L-tryptophan as substrate assessed as reduction in N-formyl kynurenine formation by measuring inhibition constant by UV-visible spectroscopic analysis
Conditions: not given
Target sequence in this assay (P14902 whole entry): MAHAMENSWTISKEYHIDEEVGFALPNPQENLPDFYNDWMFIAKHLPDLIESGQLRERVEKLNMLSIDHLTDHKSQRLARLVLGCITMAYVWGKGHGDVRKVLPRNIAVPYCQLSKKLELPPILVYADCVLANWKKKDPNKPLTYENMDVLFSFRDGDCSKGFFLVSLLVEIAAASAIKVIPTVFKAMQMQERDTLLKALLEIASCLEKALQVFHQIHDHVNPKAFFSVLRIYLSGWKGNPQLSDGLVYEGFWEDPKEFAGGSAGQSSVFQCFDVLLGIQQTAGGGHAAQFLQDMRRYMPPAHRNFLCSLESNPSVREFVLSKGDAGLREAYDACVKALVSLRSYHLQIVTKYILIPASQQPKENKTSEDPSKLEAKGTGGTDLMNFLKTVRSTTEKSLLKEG

Structure (SMILES) | Ki [µM]
CCNCCc1c[nH]c2c1C(=O)C(c1cccnc1)=CC2=O | 0.16

System: not listed separately
Assay: Cytotoxicity against HEK293 cells assessed as cell viability at 10 to 50 uM measured after 24 hrs by alamar blue assay relative to control
Type: toxicity, cell-based
Conditions: human, dose 10-50 µM, read-out: Activity

Structure (SMILES) | viability at 24 h, up to 50 µM [%]
CC(C)(C)Nc1c(-c2ccc(-c3ccccc3)cc2)nc2sccn12 | 100

Target: T1, Indoleamine 2,3-dioxygenase 1
Assay: Inhibition of human IDO1 using L-tryptophan as substrate assessed as reduction in N-formyl kynurenine formation at 200 uM by UV-visible spectroscopic analysis relative to control
Conditions: not given
Target sequence in this assay (P14902 whole entry, looked up): as the sequence (P14902 whole entry) above

Structure (SMILES) | inhibition [%]
C[C@H]1c2[nH]c3ccccc3c2C[C@]2(C)C(=O)N(C)C(=S)N12 | 29

System: not listed separately
Assay: Cytotoxicity against HEK293 cells assessed as cell viability at 10 to 100 uM measured after 24 hrs by alamar blue assay relative to control
Type: toxicity, cell-based
Conditions: human, dose 10-100 µM, read-out: Activity

Structure (SMILES) | viability at 24 h, up to 100 µM [%]
COc1ccc(-c2nc3sccn3c2NC(C)(C)C)cc1O | 100

System: HEK293
Assay: Cytotoxicity against HEK293 cells assessed as reduction in cell viability at 100 uM measured after 24 hrs by alamar blue assay relative to control
Type: toxicity, cell-based
Conditions: human, hek293, 24 h

Structure (SMILES) | Activity
CC(C)(C)Nc1c(-c2ccc(-c3ccccc3)cc2)nc2sccn12 | ~ 85%

Target: T1, Indoleamine 2,3-dioxygenase 1
Assay: Inhibition of human IDO1 using L-tryptophan as substrate assessed as reduction in N-formyl kynurenine formation by UV-visible spectroscopic analysis
Conditions: not given
Target sequence in this assay (P14902 whole entry): as above

Structure (SMILES) | IC50 [µM]
CC(C)(C)Nc1c(-c2ccc(-c3ccccc3)cc2)nc2sccn12 | 23
CC(C)(C)CC(C)(C)Nc1c(-c2ccccc2)nc2sccn12 | 465
CC(C)(C)CC(C)(C)Nc1c(-c2ccc(C(F)(F)F)cc2)nc2sccn12 | 1020
O[C@H](c1c(C2CC2)c(Cl)cc2cncn12)C1CC2CCC1CC2 (stereo partly specified) | 0.0096
c1ccc(-c2ccc(-c3nc4sccn4c3NCCN3CCOCC3)cc2)cc1 | 106
O=C(Cc1ccccc1)Nc1ccc(CCOc2ccccc2-c2cnc[nH]2)cc1 | 0.028
CC(C)(C)Nc1c(-c2ccncc2)nc2sccn12 | 908
CC(C)(C)Nc1c(-c2ccc3c(c2)OCO3)nc2sccn12 | 1450
CC(C)(C)CC(C)(C)Nc1c(-c2ccncc2)nc2sccn12 | 691
COc1ccc(-c2nc3cc(C)ccn3c2NC(C)(C)C)cc1O | 287
COc1ccc(-c2nc3sccn3c2NCCN2CCOCC2)cc1O | 73
CC(C)(C)CC(C)(C)Nc1c(-c2cccc(C#N)c2)nc2sccn12 | 477
CC(C)(C)Nc1c(-c2ccccc2)nc2sccn12 | 43
COc1ccc(-c2nc3sccn3c2NC(C)(C)C)cc1O | 13
COc1ccc(-c2nc3sccn3c2NC(C)(C)CC(C)(C)C)cc1O | 25
COc1cccc(-c2nc3sccn3c2NC(C)(C)C)c1 | 281
O=S(=O)(Nc1cccc2cnccc12)c1ccc2c(c1)OCCO2 | 0.056
CC(C)(C)CC(C)(C)Nc1c(-c2ccc(-c3ccccc3)cc2)nc2sccn12 | 47
CC(C)(C)Nc1c(-c2ccc(C(F)(F)F)cc2)nc2sccn12 | 1290
Cc1n[nH]c2c1[C@@H](c1ccc(F)c(F)c1)c1c(N)n[nH]c1O2 | 0.151

Target: T1, Indoleamine 2,3-dioxygenase 1
Conditions: dose 1.0 mM
Target sequence in this assay (P14902 whole entry, looked up): as the sequence (P14902 whole entry) above

Structure (SMILES) | inhibition [%]
c1ccc2c(c1)[nH]c1cnccc12 | 17
